According to patent publication US20250172566A1, “SACCHARIDE SENSING SYSTEMS” (CARBOMETRICS LIMITED, priority 2022, published 2025):

Columns and labels:
[1] = Fluorescent hydrogel phase glucose responsive assay (10 mM PBS, pH 7.4, 310 K)
[2] = Fluorescent solution phase glucose responsive assay (pH 7.4, 298 K)
Method: Fluorescence spectroscopy was performed on either a HORIBA Duetta or BMG Labtech CLARIOstar plus plate reader. Emission spectra were obtained using the appropriate excitation wavelength and at a temperature of either 298 or 310 K and at pH 7.4 unless otherwise stated. Data collection and analysis were performed using EzSpec software by HORIBA or CLARIOstar MARS software by BMG Labtech. Further analysis and processing were performed in Microsoft Excel.
A solution of GBM and FIM at the required concentrations were created in the appropriate media. The emission spectrum of the assay was then acquired by exciting at the designated excitation wavelength to obtain the baseline emission intensity for the assay. Aliquots of 2 M D-glucose (in the same media) were then added to give the required final glucose concentrations (e.g. 15 μL of 2 M D-glucose in 3 mL gives a final D-glucose concentration of 10 mM) and the assay allowed to reach equilibration. The emission spectra were collected after each addition of D-glucose and compared to the original baseline emission, monitoring at the typical emission maximum (Emmax), and the percentage increase or decrease recorded. Emission spectra acquired on either a Horiba Duetta fluorometer or Clariostar plus plate reader.
The glucose responsive fluorescence emission for different combinations of glucose binding molecules (GBM) and fluorescent inhibitor molecules (FIM) at various concentrations and in various media was tested as described above. All results obtained at pH 7.4 and 298 K unless otherwise stated.
All results obtained at pH 7.4 and 298 K unless otherwise stated.
Table 4 provides the composition of the assay media used as the code assigned to each media as used in Tables 1 to 3.

[3] = Fluorescence lifetime glucose responsive assay (10 mM PBS, pH 7.4, 298 K); settings: FIM 5 uM, Ex 450 nm
[4] = 5 mM D-glucose, GBM40 20 uM, FIM 5 uM, Ex 470/Emmax 520 nm, medium B (10 mM PBS)
[5] = 20 mM D-glucose, GBM40 20 uM, FIM 5 uM, Ex 470/Emmax 520 nm, medium B (10 mM PBS)
[6] = 80 mM D-glucose, GBM40 20 uM, FIM 5 uM, Ex 470/Emmax 520 nm, medium B (10 mM PBS)
[7] = 20 mM D-glucose, GBM30 100 uM, FIM 10 uM, Ex 480/Emmax 520 nm, hydrogel H (amino azide dextran/PEG)
[8] = 5 mM D-glucose, GBM15 50 uM, FIM 5 uM, Ex 470/Emmax 520 nm, medium B (10 mM PBS)
[9] = 10 mM D-glucose, GBM15 50 uM, FIM 5 uM, Ex 470/Emmax 520 nm, medium B (10 mM PBS)
[10] = 20 mM D-glucose, GBM15 50 uM, FIM 5 uM, Ex 470/Emmax 520 nm, medium B (10 mM PBS)

## C[N+](C)(C)[C@@H](CCCCn1cc(C[C@H](NC(=O)OC[C@@H]2[C@@H]3CCC#CCC[C@@H]32)C(=O)NCCOCCOCCn2cc(CNC(=O)c3ccc4c(c3)C(=O)OC43c4ccc(O)cc4Oc4cc(O)ccc43)nn2)nn1)C(=O)NCC(CO[C@@H]1O[C@H](CO)[C@@H](O)[C@H](O)[C@H]1O)c1ccccc1.O=CO (stereo partly drawn) [FIM47]
[1]; 20 mM D-glucose, GBM39 50 uM, FIM 2 uM, Ex 470/Emmax 530 nm, hydrogel D (azido PEG star polymer)
  Change in Emmax for FIM at a particular D-glucose concentration: 40%
[1]; 50 mM D-glucose, GBM39 50 uM, FIM 2 uM, Ex 470/Emmax 530 nm, hydrogel D (azido PEG star polymer)
  Change in Emmax for FIM at a particular D-glucose concentration: 100%
[1]; 60 mM D-glucose, GBM39 50 uM, FIM 2 uM, Ex 470/Emmax 530 nm, hydrogel D (azido PEG star polymer)
  Change in Emmax for FIM at a particular D-glucose concentration: 120%
[1]; 80 mM D-glucose, GBM39 50 uM, FIM 2 uM, Ex 470/Emmax 530 nm, hydrogel D (azido PEG star polymer)
  Change in Emmax for FIM at a particular D-glucose concentration: 160%
[1]; 100 mM D-glucose, GBM39 50 uM, FIM 2 uM, Ex 470/Emmax 530 nm, hydrogel D (azido PEG star polymer)
  Change in Emmax for FIM at a particular D-glucose concentration: 190%
[2]; 5 mM D-glucose, GBM15 50 μM, FIM 5 μM, medium B, Ex 470 nm, Emmax 520 nm
  Change in Emmax for FIM at a particular D-glucose concentration: 130%
[2]; [4]
  Change in Emmax for FIM at a particular D-glucose concentration: 265%
[2]; 10 mM D-glucose, GBM15 50 μM, FIM 5 μM, medium B, Ex 470 nm, Emmax 520 nm
  Change in Emmax for FIM at a particular D-glucose concentration: 190%
[2]; 10 mM D-glucose, GBM40 20 uM, FIM 5 uM, Ex 470/Emmax 520 nm, medium B (10 mM PBS)
  Change in Emmax for FIM at a particular D-glucose concentration: 410%
[2]; 20 mM D-glucose, GBM15 50 μM, FIM 5 μM, medium B, Ex 470 nm, Emmax 520 nm
  Change in Emmax for FIM at a particular D-glucose concentration: 260%
[2]; [5]
  Change in Emmax for FIM at a particular D-glucose concentration: 555%
[2]; 40 mM D-glucose, GBM15 50 μM, FIM 5 μM, medium B, Ex 470 nm, Emmax 520 nm
  Change in Emmax for FIM at a particular D-glucose concentration: 310%
[2]; 40 mM D-glucose, GBM40 20 uM, FIM 5 uM, Ex 470/Emmax 520 nm, medium B (10 mM PBS)
  Change in Emmax for FIM at a particular D-glucose concentration: 710%
[2]; 60 mM D-glucose, GBM15 50 μM, FIM 5 μM, medium B, Ex 470 nm, Emmax 520 nm
  Change in Emmax for FIM at a particular D-glucose concentration: 340%
[2]; 80 mM D-glucose, GBM15 50 μM, FIM 5 μM, medium B, Ex 470 nm, Emmax 520 nm
  Change in Emmax for FIM at a particular D-glucose concentration: 350%
[2]; [6]
  Change in Emmax for FIM at a particular D-glucose concentration: 860%

## CC(C)(C)OC(=O)NC(Cc1cn(CCCCC(C(=O)NCC(COC2OC(CO)C(O)C(O)C2O)c2ccccc2)[N+](C)(C)C)nn1)C(=O)NCCOCCOCCn1cc(-c2ccnc(-c3cc(-c4cn(CCOCCOc5cc(S(=O)(=O)[O-])c6ccc7c(S(=O)(=O)[O-])cc(S(=O)(=O)[O-])c8ccc5c6c87)nn4)ccn3)c2)nn1.[Ru+2].c1ccc(-c2ccccn2)nc1.c1ccc(-c2ccccn2)nc1 (stereo not drawn) [FIM56]
[3]; 5 mM glucose, GBM15 20 uM
  Fluorescence lifetime component τ1 for FIM and GBM at a particular glucose concentration: 695 ns
  Fluorescence lifetime component τ2 for FIM and GBM at a particular glucose concentration: 3040 ns
[3]; 20 mM glucose, GBM15 20 uM
  Fluorescence lifetime component τ1 for FIM and GBM at a particular glucose concentration: 660 ns
  Fluorescence lifetime component τ2 for FIM and GBM at a particular glucose concentration: 3210 ns
[3]; 40 mM glucose, GBM15 20 uM
  Fluorescence lifetime component τ1 for FIM and GBM at a particular glucose concentration: 625 ns
  Fluorescence lifetime component τ2 for FIM and GBM at a particular glucose concentration: 3260 ns
[3]
  Lifetime component τ1 of FIM only: 520 ns
  Lifetime component τ2 of FIM only: 3620 ns
[3]; GBM15 20 uM
  Lifetime component τ1 of FIM after GBM addition: 650 ns
  Lifetime component τ2 of FIM after GBM addition: 2500 ns

## C[N+](C)(C)[C@@H](CCCCn1cc(C[C@H](NC(=O)OC[C@@H]2[C@@H]3CCC#CCC[C@@H]32)C(=O)NCCOCCOCCn2cc(CNC(=O)c3ccc4c(c3)C(=O)OC43c4ccc(N)c(S(=O)(=O)[O-])c4Oc4c3ccc(N)c4S(=O)(=O)O)nn2)nn1)C(=O)NCC(CO[C@@H]1O[C@H](CO)[C@@H](O)[C@H](O)[C@H]1O)c1ccccc1 (stereo partly drawn) [FIM60]
[1]; 20 mM D-glucose, GBM15 50 uM, FIM 50 uM, Ex 480/Emmax 520 nm, hydrogel G (amino dextran/PEG/PEG3-azide)
  Change in Emmax for FIM at a particular D-glucose concentration: 50%
[1]; [7]
  Change in Emmax for FIM at a particular D-glucose concentration: 40%
[2]; 5 mM D-glucose, GBM7 50 uM, FIM 5 uM, Ex 470/Emmax 520 nm, medium B (10 mM PBS)
  Change in Emmax for FIM at a particular D-glucose concentration: 220%
[2]; [8]
  Change in Emmax for FIM at a particular D-glucose concentration: 80%
[2]; 5 mM D-glucose, GBM30 50 uM, FIM 1 uM, Ex 470/Emmax 520 nm, medium B (10 mM PBS)
  Change in Emmax for FIM at a particular D-glucose concentration: 120%
[2]; [4]
  Change in Emmax for FIM at a particular D-glucose concentration: 250%
[2]; 5 mM D-glucose, GBM40 20 uM, FIM 5 uM, Ex 470/Emmax 520 nm, medium C (human serum)
  Change in Emmax for FIM at a particular D-glucose concentration: 250%
[2]; 5 mM D-glucose, GBM43 40 uM, FIM 5 uM, Ex 450/Emmax 520 nm, medium B (10 mM PBS)
  Change in Emmax for FIM at a particular D-glucose concentration: 80%
[2]; [9]
  Change in Emmax for FIM at a particular D-glucose concentration: 130%
[2]; 10 mM D-glucose, GBM30 50 uM, FIM 1 uM, Ex 470/Emmax 520 nm, medium B (10 mM PBS)
  Change in Emmax for FIM at a particular D-glucose concentration: 170%
[2]; 10 mM D-glucose, GBM43 40 uM, FIM 5 uM, Ex 450/Emmax 520 nm, medium B (10 mM PBS)
  Change in Emmax for FIM at a particular D-glucose concentration: 125%
[2]; 20 mM D-glucose, GBM7 50 uM, FIM 5 uM, Ex 470/Emmax 520 nm, medium B (10 mM PBS)
  Change in Emmax for FIM at a particular D-glucose concentration: 310%
[2]; [10]
  Change in Emmax for FIM at a particular D-glucose concentration: 200%
[2]; 20 mM D-glucose, GBM30 50 uM, FIM 1 uM, Ex 470/Emmax 520 nm, medium B (10 mM PBS)
  Change in Emmax for FIM at a particular D-glucose concentration: 200%
[2]; [5]
  Change in Emmax for FIM at a particular D-glucose concentration: 450%
[2]; 20 mM D-glucose, GBM40 20 uM, FIM 5 uM, Ex 470/Emmax 520 nm, medium C (human serum)
  Change in Emmax for FIM at a particular D-glucose concentration: 430%
[2]; 20 mM D-glucose, GBM43 40 uM, FIM 5 uM, Ex 450/Emmax 520 nm, medium B (10 mM PBS)
  Change in Emmax for FIM at a particular D-glucose concentration: 165%
[2]; 40 mM D-glucose, GBM7 50 uM, FIM 5 uM, Ex 470/Emmax 520 nm, medium B (10 mM PBS)
  Change in Emmax for FIM at a particular D-glucose concentration: 400%
[2]; 40 mM D-glucose, GBM15 50 uM, FIM 5 uM, Ex 470/Emmax 520 nm, medium B (10 mM PBS)
  Change in Emmax for FIM at a particular D-glucose concentration: 220%
[2]; 40 mM D-glucose, GBM30 50 uM, FIM 1 uM, Ex 470/Emmax 520 nm, medium B (10 mM PBS)
  Change in Emmax for FIM at a particular D-glucose concentration: 220%
[2]; 40 mM D-glucose, GBM43 40 uM, FIM 5 uM, Ex 450/Emmax 520 nm, medium B (10 mM PBS)
  Change in Emmax for FIM at a particular D-glucose concentration: 200%
[2]; [6]
  Change in Emmax for FIM at a particular D-glucose concentration: 600%
[2]; 80 mM D-glucose, GBM40 20 uM, FIM 5 uM, Ex 470/Emmax 520 nm, medium C (human serum)
  Change in Emmax for FIM at a particular D-glucose concentration: 500%
[2]; 80 mM D-glucose, GBM43 40 uM, FIM 5 uM, Ex 450/Emmax 520 nm, medium B (10 mM PBS)
  Change in Emmax for FIM at a particular D-glucose concentration: 230%

## C#CCCC(=O)N[C@@H](CCCCNC(=O)Cn1cc(CNC(=O)c2ccc3c(c2)C(=O)OC32c3ccc(O)cc3Oc3cc(O)ccc32)nn1)C(=O)NCCOCCOCCOCCOCc1cn(CCO[C@@H]2O[C@H](CO)[C@@H](O)[C@H](O)[C@H]2O)nn1 [FIM66]
[1]; [7]
  Change in Emmax for FIM at a particular D-glucose concentration: 140%
[2]; [8]
  Change in Emmax for FIM at a particular D-glucose concentration: 250%
[2]; [9]
  Change in Emmax for FIM at a particular D-glucose concentration: 255%
[2]; [10]
  Change in Emmax for FIM at a particular D-glucose concentration: 260%
